From patent US6410792B1, “Amide derivatives and methods for using the same as selective neuropeptide Y receptor antagonists” (Bayer Corporation, priority 1997, dated 2002)
Where two headings read alike, the source gives them in different places.

Tests used:
Y2 receptor = target: T1, Y2 receptor (Homo sapiens, UniProt P49146); experiment: Y2 receptor binding assay ([125I]PYY, membrane protein); details: read-out: hNPY2 IC50
T1 sequence (P49146 1-381): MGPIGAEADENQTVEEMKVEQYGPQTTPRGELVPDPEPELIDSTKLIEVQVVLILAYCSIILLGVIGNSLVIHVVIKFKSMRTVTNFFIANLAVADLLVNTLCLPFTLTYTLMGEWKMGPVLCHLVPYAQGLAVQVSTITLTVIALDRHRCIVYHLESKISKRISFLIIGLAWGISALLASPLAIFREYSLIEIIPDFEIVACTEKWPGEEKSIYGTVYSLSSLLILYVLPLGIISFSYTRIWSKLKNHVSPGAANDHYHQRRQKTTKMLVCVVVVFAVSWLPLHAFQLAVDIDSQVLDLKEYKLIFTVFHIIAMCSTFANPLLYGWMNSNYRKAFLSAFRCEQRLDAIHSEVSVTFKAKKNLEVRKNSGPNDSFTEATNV
Method: B. Human Y2 and Y4/PP1 Receptor Binding Assays
Binding assays were performed on GF/C Millipore 96-well plates pretreated with 0.02% polyethylenimine. The binding buffer for rat Y2 binding is Krebs-Ringer bicarbonate (pH 7.4) containing 0.01% BSA and 0.005% bacitracin. Samples consist of membrane protein, 25 pM [1251]PYY and drug dilution. Nonspecific binding is defined by 1 μM NPY. The binding buffer for human Y4/PP1 binding consists of 137 mM NaCl, 5.4 mM KCl, 0.44 mM KH2PO4, 1.26 mM CaCl2, 0.81 mM MgSO4, 20 mM HEPES, 1 mM dithiothreitol, 0.1% bacitracin, 100 mg/l streptomycin sulfate, 1 mg/l aprotinin, 10 mg/ml soybean trypsin inhibitor and 0.3% BSA, pH 7.4. Samples consist of membrane protein, 50 pM human [1251]human PP (hPP: NEN DuPont, Boston, Mass.) and drug dilution. 1 μM hPP is used to define nonspecific binding.
After a 2 hour incubation at room temperature with constant mixing, the samples are aspirated on a vacuum manifold, and rinsed with ice-cold binding buffer. The amount of radioactivity in each well is quantitated with either gamma counting or liquid scintillation.

Human NPY5 receptor = target: T2, Human NPY5 receptor (Homo sapiens, UniProt Q15761); experiment: Human NPY5 receptor binding assay ([125I]PYY, membrane protein); details: [125I]PYY binding, read-out: hNPY5 IC50
T2 sequence (Q15761 1-445): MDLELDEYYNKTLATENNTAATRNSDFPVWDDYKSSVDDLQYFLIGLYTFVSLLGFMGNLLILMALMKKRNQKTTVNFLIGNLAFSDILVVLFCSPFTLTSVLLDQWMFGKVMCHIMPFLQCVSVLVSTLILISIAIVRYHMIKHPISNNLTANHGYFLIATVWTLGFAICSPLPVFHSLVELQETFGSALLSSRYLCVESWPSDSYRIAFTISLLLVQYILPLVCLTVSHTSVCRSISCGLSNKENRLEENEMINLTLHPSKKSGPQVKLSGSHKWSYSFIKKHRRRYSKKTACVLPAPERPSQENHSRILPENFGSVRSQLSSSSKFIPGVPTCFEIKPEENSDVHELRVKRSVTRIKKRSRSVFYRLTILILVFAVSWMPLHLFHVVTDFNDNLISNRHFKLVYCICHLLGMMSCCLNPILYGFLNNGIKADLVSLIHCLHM
Method: C. Human and Rat NPY5 Receptor Binding Assays
Binding assays are performed on GF/C Millipore 96well plates pretreated with 0.02% polyethylenimine. The binding buffer is 25 mM Tris, 120 mM NaCl, 5 mM KCl, 1.2 mM KH2PO4, 2.5 mM CaCl2, 1.2 mM MgSO4, 0.1% BSA and 0.5 mg/ml bacitracin, pH 7.4. Samples consist of membrane protein, 75-100 pM [125I]PYY (porcine, NEN-DuPont) and drug dilution. Nonspecific binding is defined by 1 μM PYY. After a 2 hour incubation at room temperature with constant mixing, the samples are aspirated on a vacuum manifold, and rinsed with ice-cold binding buffer. The amount of radioactivity in each well is quantitated with either gamma counting or liquid scintillation.

[1] = [125I]PYY binding, membrane protein

Compound | IC50 (Y2 receptor; [1]) | IC50 (Human NPY5 receptor) | IC50 (Y2 receptor)
O=C(CN1CCC(O)CC1)Nc1ccc(C(=O)c2ccccc2)cc1 [Compound 42, N-(4-Benzoyl-phenyl)-2-(4-hydroxy-piperidin-1-yl)-acetamide] | > 5 µM | 1.6 µM | –
O=C(CNCC1CCNCC1)Nc1ccc(C(=O)c2ccccc2)cc1 [Compound 43, N-(4-Benzoyl-phenyl)-2-[(piperidin-4-ylmethyl)-amino]-acetamide] | > 5 µM | > 10 µM | –
N#CC1(c2ccccc2)CCN(CC(=O)Nc2ccc(C(=O)c3ccccc3)cc2)CC1 [Compound 44, N-(4-Benzoyl-phenyl)-2-(4-cyano-4-phenyl-piperidin-1-yl)-acetamide] | – | 0.093 µM | > 5 µM
O=C(CN1CCC(N2CCCC2)CC1)Nc1ccc(C(=O)c2ccccc2)cc1 [Compound 45, N-(4-Benzoyl-phenyl)-2-(4-pyrrolidin-1-yl-piperidin-1-yl)-acetamide] | > 5 µM | 8.5 µM | –
CNC1(C(N)=O)CCN(CC(=O)Nc2ccc(C(=O)c3ccccc3)cc2)CC1 [Compound 46, 1-[(4-Benzoyl-phenylcarbamoyl)-methyl]-4-methylamino-piperidine-4-carboxylic acid amide] | > 5 µM | 0.005 µM | –
NC(=O)C1(Nc2ccccc2)CCN(CC(=O)Nc2ccc(C(=O)c3ccccc3)cc2)CC1 [Compound 47, 1-[(4-Benzoyl-phenylcarbamoyl)-methyl]-4-phenylamino-piperidine-4-carboxylic acid amide] | > 5 µM | 1.2 µM | –
CCNC1(C(N)=O)CCN(CC(=O)Nc2ccc(C(=O)c3ccccc3)cc2)CC1 [Compound 48, 1-[(4-Benzoyl-phenylcarbamoyl)-methyl]-4-ethylamino-piperidine-4-carboxylic acid amide] | > 5 µM | 0.02 µM | –
CN(C)C1CCN(CC(=O)Nc2ccc(C(=O)c3ccccc3)cc2)CC1 [Compound 49, N-(4-Benzoyl-phenyl)-2-(4-dimethylamino-piperidin-1-yl)-acetamide] | > 5 µM | 8.8 µM | –
CC1CCN(CC(=O)Nc2ccc(C(=O)c3ccccc3)cc2)CC1 [Compound 50, N-(4-Benzoyl-phenyl)-2-(4-methyl-piperidin-1-yl)-acetamide] | > 5 µM | 2.2 µM | –
CC1(C)CCN(CC(=O)Nc2ccc(C(=O)c3ccccc3)cc2)CC1 [Compound 51, N-(4-Benzoyl-phenyl)-2-(4,4-dimethyl-piperidin-1-yl)-acetamide] | > 5 µM | 3.3 µM | –
O=C(CN1CCC(CCC2CCNCC2)CC1)Nc1ccc(C2CCCCC2)cc1 [Compound 54, N-(4-Cyclohexyl-phenyl)-2-[4-(2-piperidin-4-yl-ethyl)-piperidin-1-yl]-acetamide] | > 5 µM | 7.3 µM | –
O=C(CN1CCC(CCC2CCNCC2)CC1)Nc1ccc(C(=O)c2ccccc2)cc1 [Compound 55, n-(4-Benzoyl-phenyl)-2-[4-(2-piperidin-4-ylethyl)-piperidin-1-yl]-acetamide] | > 5 µM | > 10 µM | –
CC(=O)NCC1(c2ccccc2)CCN(CC(=O)Nc2ccc(C(=O)c3ccccc3)cc2)CC1 [Compound 56, 2-[4-(Acetylamino-methyl)-4-phenyl-piperidin-1-yl]-N-(4-benzoyl-phenyl)-acetamide] | > 5 µM | 0.208 µM | –
N#CC(c1ccccc1)C1CCN(CC(=O)Nc2ccc(C(=O)c3ccccc3)cc2)CC1 (centres unmarked) [Compound 57, N-(4-Benzoyl-phenyl)-2-[4-(cyano-phenyl-methyl)-piperidin-1-yl]-acetamide] | > 5 µM | 0.005 µM | –
O=C(CN1CCC2(CC1)C(=O)NCN2c1ccccc1)Nc1ccc(C(=O)c2ccccc2)cc1 [Compound 58, N-(4-Benzoyl-phenyl)-2-(4-oxo-1-phenyl-1,3,8-triaz-spiro[4.5]dec-8-yl)-acetamide] | > 5 µM | 2 µM | –
CC(O)C1CCN(CC(=O)Nc2ccc(C3CCCCC3)cc2)CC1 (centres unmarked) [Compound 59, N-(4-Cyclohexyl-phenyl)-2-[4-(1-hydroxy-ethyl)-piperidin-1-yl]-acetamide] | > 5 µM | 0.65 µM | –
O=C(CN1CCC(O)(CCCc2ccccc2)CC1)Nc1ccc(C(=O)c2ccccc2)cc1 [Compound 60, N-(4-Benzoyl-phenyl)-2-[4-hydroxy-4-(3-phenyl-propyl)-piperidin-1-yl]-acetamide] | > 5 µM | 4.2 µM | –
O=C(CN1CCC(O)(CCCc2ccccc2)CC1)Nc1ccc(C2CCCCC2)cc1 [Compound 61, N-(4-Cyclohexyl-phenyl)-2-[4-hydroxy-4-(3-phenyl-propyl)-piperidin-1-yl]-acetamide] | > 5 µM | 9.5 µM | –
O=C(CN1CCC(O)(c2cccc(C(F)(F)F)c2)CC1)Nc1ccc(C(=O)c2ccccc2)cc1 [Compound 63, N-(4-Benzoyl-phenyl)-2-[4-hydroxy-4-(3-trifluoromethyl-phenyl)-piperidin-1-yl]-acetamide] | > 5 µM | 0.57 µM | –
CN(C)C1(C(N)=O)CCN(CC(=O)Nc2ccc(C(=O)c3ccccc3)cc2)CC1 [Compound 64, 1-[(4-Benzoyl-phenylcarbamoyl)-methyl]-4-dimethylamino-piperidine-4-carboxylic acid amide] | > 5 µM | 4.8 µM | –
CCCOC1(c2ccccc2)CCN(CC(=O)Nc2ccc(C(=O)c3ccccc3)cc2)CC1 [Compound 66, N-(4-Benzoyl-phenyl)-2-(4-phenyl-4-propoxy-piperidin-1-yl)-acetamide] | > 5 µM | 0.78 µM | –
O=C(CN1CCC(CCCC2CCN(CCO)CC2)CC1)Nc1ccc(C(=O)c2ccccc2)cc1 [Compound 67, N-(4-Benzoyl-phenyl)-2-(4-{3-[1-(2-hydroxy-ethyl)-piperidin-4-yl]-propyl}-piperidin-1-yl)-acetamide] | > 5 µM | > 10 µM | –
O=C(CN1CCC(CCCC2CCN(CCO)CC2)CC1)Nc1ccc(C2CCCCC2)cc1 [Compound 68, N-(4-Cyclohexyl-phenyl)-2-(4-{3-[1-(2-hydroxy-ethyl)-piperidin-4-yl]-propyl}-piperidin-1-yl)-acetamide] | > 5 µM | 9.7 µM | –
CCC(=O)C1(c2ccccc2)CCN(CC(=O)Nc2ccc(C(=O)c3ccccc3)cc2)CC1 [Compound 69, N-(4-Benzoyl-phenyl)-2-(4-phenyl-4-propionyl-piperidin-1-yl)-acetamide] | > 5 µM | 0.003 µM | –
CC(O)C1CCN(CC(=O)Nc2ccc(C(=O)c3ccccc3)cc2)CC1 (centres unmarked) [Compound 70, N-(4-Benzoyl-phenyl)-2-[4-(1-hydroxy-ethyl)-piperidin-1-yl]-acetamide] | > 5 µM | 3.7 µM | –
Cc1ccc(C2(O)CCN(CC(=O)Nc3ccc(C(=O)c4ccccc4)cc3)CC2)cc1 [Compound 71, N-(4-Benzoyl-phenyl)-2-(4-hydroxy-4-p-tolyl-piperidin-1-yl)-acetamide] | > 5 µM | 0.22 µM | –
O=C(CN1CCC(C(=O)N2CCCCC2)(c2ccccc2)CC1)Nc1ccc(C2CCCCC2)cc1 [Compound 72, N-(4-Cyclohexyl-phenyl)-2-[4-phenyl-4-(piperidine-1-carbonyl)-piperidin-1-yl]-acetamide] | > 5 µM | 1 µM | –
O=C(CN1CCC(C(=O)N2CCCCC2)(c2ccccc2)CC1)Nc1ccc(C(=O)c2ccccc2)cc1 [Compound 73, N-(4-Benzoyl-phenyl)-2-[4-phenyl-4-(piperidine-1-carbonyl)-piperidin-1-yl]-acetamide] | > 5 µM | > 5 µM | –
